Earlier results in PMC3969558 (Molecular Biology and Evolution, 2013).
No end group written: not given here.

How the values were obtained:
amphioxus GnRHR3 = details: ref Tello and Sherwood 2009
[1] = tested on: steroidal receptors (nuclear receptors similar to the sex steroid receptors); details: ref Paris et al. 2008; Katsu et al. 2010

vertebrate GnRH2: vertebrate GnRH2, present throughout the vertebrates, 10 amino acids (QHWSHGWYPG; ends and bridges not checked; UniProt O43555 24-33, looked up)
activation of GnRHR3 (earlier study) (amphioxus GnRHR3): activated amphioxus GnRHR3 within the vertebrate physiological range

C[C@]12CC[C@@H]3c4ccc(O)cc4CC[C@H]3[C@@H]1CC[C@@H]2O [estradiol]
binding to amphioxus steroidal receptor [1]: has been shown to bind one of the steroidal receptors
